For one assay, the system named is mAb 64-3-7. The format is binding, murine. To be noted: SPR, BIAcore T100; graded peptide concentrations 11, 33 and 100 μM; Figure 1B. On the technique in general: Surface plasmon resonance follows binding to a sensor surface in real time, without labels.
Another assay relates to mAb 64-3-7 Fab. Briefly: SPR direct binding of soluble 64-3-7 Fab to peptide coupled to a CM5 chip. More on the design: species or system murine. To be noted: similarly coupled peptide surface, data not shown.
Assay [1] has as its target T1, H-2L^d octamer peptide EPQAPWME, residues 46-53 (mouse).
T1 chain: EPQAPWME
Briefly: crystal structure.

For assay [2], the target named is T2, H-2L^d heptamer peptide EPQAPWM (residues 46 to 52) (Mus musculus, H-2Ld).
T2 chain: EPQAPWM
The assay can be described thus: SPR.

In assay [3] the target is T3, H-2L^d 6-mer peptide EPQAPW (Mus musculus, H-2Ld).
T3 chain: EPQAPW
Briefly: SPR.

“Also recorded” adds a separate entry of the source.

From PMC3422668 (Journal of immunology (Baltimore, Md. : 1950), 2012) come the findings set out here.

As for EPQAPWM, the “competition for antibody binding to pL^d35-55-coupled surface” value (“competition for antibody binding” for short) in the assay on mAb 64-3-7 is on record as “compete effectively”.
With “SNVREIKNRWRSTVQKLK [control peptide, reference compound]”, the “direct binding of 64-3-7 Fab to peptide-coupled biosensor surface” value in the assay with mAb 64-3-7 Fab is “no detectable binding”.
With QAPWM, the “competition for antibody binding” value with mAb 64-3-7 is on record as “fails to block”.
Regarding RFDSDAENPRYEPRARWMEQE [pK^b35-55], the “direct binding of 64-3-7 Fab to peptide-coupled biosensor surface” value in the assay on mAb 64-3-7 Fab is “no detectable binding”.
Regarding EPQAPW, in the assay with mAb 64-3-7, the “competition for antibody binding” value is “intermediate activity”.
Still for that read-out and setting: the same measure for PQAPWM: “intermediate activity; also recorded: only binds weakly”.

B1: Fab fragment of mAb 64-3-7 (Fab, V domains shown)
VH: EVKLVESEGGLVQPGSSMKLSCTASGFTFSDYYMAWVRQVPEKGLEWVANINYDGSSTYYLDSLKGRFIISRDIAKNILYLQMSSLRCEDTATYYCARLTNGYLDVWGAGTTVTVSS
VL: DVVMTQTPLSLPVSLGDQASISCRSSQSLVHSNGNTYLHWYLQKPGQSPNLLIYKVSNRFSGVPDRFSGSGSGTDFTLKISRVEAEDLGVYFCSQSTHVPTFGGGTKLEIK
Regarding B1, in assay [1], the binding result is “binds”.

B2: mAb 64-3-7 (antibody, V domains shown)
VH: B1 VH
VL: B1 VL
On to B2, for which the binding result in assay [2] and in assay [3] was “binds” each time.
